Source: US8329686B2, “Isatin analogues and uses therefor” (Washington University, priority 2006, dated 2012)

Key:
[1] = Biodistribution of [^18F]WC-II-89 in normal and cycloheximide-treated rats; format: in vivo, Sprague-Dawley rats
Procedure: All animal studies were performed in accordance with the regulations of the Washington University Institutional Animal Care and Use Committee. Mature male Sprague Dawley rats from Charles River Laboratories were briefly anesthetized with 1-2% isoflurane in oxygen. […] Treated rats also received 5 mg/kg cycloheximide in saline via the tail vein three hours prior to radiotracer administration in order to induce caspase-mediated liver apoptosis. At set time-points following radiopharmaceutical injection, rats were again anesthetized and euthanized. Target and non-target organs were removed, weighed, and the radioactivity was counted using a Beckman Gamma 8000 well counter. Standard dilutions of the injected dose were counted along with the samples and uptake was calculated and reported as percent injected dose per gram (% ID/g).
This model, which uses the protein synthesis inhibitor, cycloheximide (CHX), was previously used in the evaluation of radiolabeled annexin V analogs (37). Tissue morphology and TUNEL staining studies have shown that cycloheximide induces apoptosis in rat liver in both a dose-dependent and time-dependent manner. Within 3 hours of treatment with 1.5, 3, or 10 mg of cycloheximide per kilogram of body weight, apoptosis was induced in rat liver (35, 36). Therefore, we chose 3 hours treatment of 5 mg/kg to induce the maximum apoptosis in rat liver, expecting a high level of caspase-3 activation.
In general, the initial uptake was higher for CHX treated rats than control rats. However, the difference between control and treated rats was reduced with time with the exception of the liver and spleen.

[2] = MicroPET imaging of [^18F]WC-II-89 in control and cycloheximide-treated rat; format: in vivo; details: cycloheximide 3-hour pretreated rat versus control, 10-60 minutes post-i.v. injection
Procedure: MicroPET imaging studies were performed using a MicroPET Focus 220 and MicroPET Focus 120 scanner (Siemens/CTI, Knoxyille, Tenn.). A control and cycloheximide-treated (5 mg/kg, 3 hours pretreated) rat were anesthetized and a catheter inserted in the jugular vein. […] MicroPET images were reconstructed with OSEM-2D data analysis software package (Siemens/CTI, Knoxyille, Tenn.).
This was also confirmed by Western blot analysis of the rat livers following completion of the microPET imaging study.

With `O=C1C(=O)N(Cc2ccc(OCC[18F])cc2)c2ccc(S(=O)(=O)N3CCC[C@H]3COc3ccccc3)cc21` [[^18F]WC-II-89] the “% I.D./gram” value ([1]; blood, control rats, 5 min.) was 2.70 ± 0.21 % I.D./gram, the “% I.D./gram” value ([1]; blood, control rats, 1 hr.) was 0.11 ± 0.01 % I.D./gram and the “% I.D./gram” value ([1]; blood, control rats, 2 hr.) was 0.06 ± 0.01 % I.D./gram. The “% I.D./gram” value ([1]; blood, cycloheximide-treated rats, 5 min.) was 3.66 ± 0.40 % I.D./gram, the “% I.D./gram” value ([1]; blood, cycloheximide-treated rats, 1 hr.) was 0.16 ± 0.01 % I.D./gram and the “% I.D./gram” value ([1]; blood, cycloheximide-treated rats, 2 hr.) was 0.07 ± 0.00 % I.D./gram. The “% I.D./gram” value ([1]; bone, control rats, 5 min.) was 0.44 ± 0.04 % I.D./gram, the “% I.D./gram” value ([1]; bone, control rats, 1 hr.) was 0.13 ± 0.02 % I.D./gram and the “% I.D./gram” value ([1]; bone, control rats, 2 hr.) was 0.15 ± 0.06 % I.D./gram. The “% I.D./gram” value ([1]; bone, cycloheximide-treated rats, 5 min.) was 0.66 ± 0.06 % I.D./gram, the “% I.D./gram” value ([1]; bone, cycloheximide-treated rats, 1 hr.) was 0.12 ± 0.01 % I.D./gram and the “% I.D./gram” value ([1]; bone, cycloheximide-treated rats, 2 hr.) was 0.13 ± 0.03 % I.D./gram. The “uptake of radioactivity in bone” value ([1]; bone, defluorination) was “very low uptake”, the “% I.D./gram” value ([1]; fat, control rats, 5 min.) was 0.12 ± 0.02 % I.D./gram and the “% I.D./gram” value ([1]; fat, control rats, 1 hr.) was 0.15 ± 0.02 % I.D./gram. The “% I.D./gram” value ([1]; fat, control rats, 2 hr.) was 0.07 ± 0.01 % I.D./gram, the “% I.D./gram” value ([1]; fat, cycloheximide-treated rats, 5 min.) was 0.09 ± 0.03 % I.D./gram and the “% I.D./gram” value ([1]; fat, cycloheximide-treated rats, 1 hr.) was 0.14 ± 0.01 % I.D./gram. For the same compound, the “% I.D./gram” value ([1]; fat, cycloheximide-treated rats, 2 hr.) was 0.09 ± 0.01 % I.D./gram, the “% I.D./gram” value ([1]; kidney, control rats, 5 min.) was 1.25 ± 0.14 % I.D./gram and the “% I.D./gram” value ([1]; kidney, control rats, 1 hr.) was 0.53 ± 0.07 % I.D./gram. For the same compound, the “% I.D./gram” value ([1]; kidney, control rats, 2 hr.) was 0.18 ± 0.04 % I.D./gram, the “% I.D./gram” value ([1]; kidney, cycloheximide-treated rats, 5 min.) was 1.18 ± 0.08 % I.D./gram and the “% I.D./gram” value ([1]; kidney, cycloheximide-treated rats, 1 hr.) was 0.55 ± 0.05 % I.D./gram. For the same compound, the “% I.D./gram” value ([1]; kidney, cycloheximide-treated rats, 2 hr.) was 0.23 ± 0.05 % I.D./gram, the “uptake in liver, treated rats higher than control” value ([1]; liver, 1-hour post-i.v. injection, cycloheximide-treated vs control) was 94% and the “% I.D./gram” value ([1]; liver, control rats, 5 min.) was 3.13 ± 0.26 % I.D./gram. For the same compound, the “% I.D./gram” value ([1]; liver, control rats, 1 hr.) was 0.38 ± 0.06 % I.D./gram, the “% I.D./gram” value ([1]; liver, control rats, 2 hr.) was 0.16 ± 0.02 % I.D./gram and the “% I.D./gram” value ([1]; liver, cycloheximide-treated rats, 5 min.) was 4.02 ± 0.45 % I.D./gram. The “% I.D./gram” value ([1]; liver, cycloheximide-treated rats, 1 hr.) was 0.73 ± 0.12 % I.D./gram, the “% I.D./gram” value ([1]; liver, cycloheximide-treated rats, 2 hr.) was 0.22 ± 0.03 % I.D./gram and the “% I.D./gram” value ([1]; lung, control rats, 5 min.) was 1.42 ± 0.34 % I.D./gram. For the same compound, the “% I.D./gram” value ([1]; lung, control rats, 1 hr.) was 0.18 ± 0.03 % I.D./gram, the “% I.D./gram” value ([1]; lung, control rats, 2 hr.) was 0.08 ± 0.01 % I.D./gram and the “% I.D./gram” value ([1]; lung, cycloheximide-treated rats, 5 min.) was 2.08 ± 0.23 % I.D./gram. For the same compound, the “% I.D./gram” value ([1]; lung, cycloheximide-treated rats, 1 hr.) was 0.23 ± 0.03 % I.D./gram, the “% I.D./gram” value ([1]; lung, cycloheximide-treated rats, 2 hr.) was 0.11 ± 0.02 % I.D./gram and the “% I.D./gram” value ([1]; muscle, control rats, 5 min.) was 0.14 ± 0.01 % I.D./gram. For the same compound, the “% I.D./gram” value ([1]; muscle, control rats, 1 hr.) was 0.08 ± 0.01 % I.D./gram, the “% I.D./gram” value ([1]; muscle, control rats, 2 hr.) was 0.03 ± 0.00 % I.D./gram and the “% I.D./gram” value ([1]; muscle, cycloheximide-treated rats, 5 min.) was 0.09 ± 0.00 % I.D./gram. For the same compound, the “% I.D./gram” value ([1]; muscle, cycloheximide-treated rats, 1 hr.) was 0.10 ± 0.02 % I.D./gram, the “% I.D./gram” value ([1]; muscle, cycloheximide-treated rats, 2 hr.) was 0.06 ± 0.00 % I.D./gram and the “uptake in spleen, treated rats higher than control” value ([1]; spleen, 1-hour post-i.v. injection, cycloheximide-treated vs control) was 184%. For the same compound, the “% I.D./gram” value ([1]; spleen, control rats, 5 min.) was 1.14 ± 0.08 % I.D./gram, the “% I.D./gram” value ([1]; spleen, control rats, 1 hr.) was 0.15 ± 0.05 % I.D./gram and the “% I.D./gram” value ([1]; spleen, control rats, 2 hr.) was 0.06 ± 0.01 % I.D./gram. The “% I.D./gram” value ([1]; spleen, cycloheximide-treated rats, 5 min.) was 2.24 ± 0.41 % I.D./gram, the “% I.D./gram” value ([1]; spleen, cycloheximide-treated rats, 1 hr.) was 0.43 ± 0.05 % I.D./gram and the “% I.D./gram” value ([1]; spleen, cycloheximide-treated rats, 2 hr.) was 0.11 ± 0.03 % I.D./gram. For the same compound, the “% I.D./gram” value ([1]; thymus, control rats, 5 min.) was 0.23 ± 0.07 % I.D./gram, the “% I.D./gram” value ([1]; thymus, control rats, 1 hr.) was 0.09 ± 0.01 % I.D./gram and the “% I.D./gram” value ([1]; thymus, control rats, 2 hr.) was 0.04 ± 0.00 % I.D./gram. The “% I.D./gram” value ([1]; thymus, cycloheximide-treated rats, 5 min.) was 0.38 ± 0.10 % I.D./gram, the “% I.D./gram” value ([1]; thymus, cycloheximide-treated rats, 1 hr.) was 0.12 ± 0.02 % I.D./gram and the “% I.D./gram” value ([1]; thymus, cycloheximide-treated rats, 2 hr.) was 0.06 ± 0.01 % I.D./gram. The “microPET uptake in the liver” value [2] was “higher uptake”.
